Measured values reported in article PMC5664438, “The novel isoxazoline ectoparasiticide lotilaner (Credelio™): a non-competitive antagonist specific to invertebrates γ-aminobutyric acid-gated chloride channels (GABACls)” (Parasites & Vectors, 2017).
Entries after “also recorded” stand apart in the source; their conditions may differ. Where two headings read alike, the source gives them in different places.

Legend:
Ls-GABA1 [1] = molecular target: T1, Ls-GABA1 (Lepeophtheirus salmonis, UniProt A0A2H4NNJ4); experiment: Antagonist cumulative pre-application concentration-inhibition, TEVC on oocytes expressing Ls-GABA1; assay type: cell-based; conditions: for nH (Hill coefficient): concentration-inhibition curve
T1 sequence (A0A2H4NNJ4 entry or part of it): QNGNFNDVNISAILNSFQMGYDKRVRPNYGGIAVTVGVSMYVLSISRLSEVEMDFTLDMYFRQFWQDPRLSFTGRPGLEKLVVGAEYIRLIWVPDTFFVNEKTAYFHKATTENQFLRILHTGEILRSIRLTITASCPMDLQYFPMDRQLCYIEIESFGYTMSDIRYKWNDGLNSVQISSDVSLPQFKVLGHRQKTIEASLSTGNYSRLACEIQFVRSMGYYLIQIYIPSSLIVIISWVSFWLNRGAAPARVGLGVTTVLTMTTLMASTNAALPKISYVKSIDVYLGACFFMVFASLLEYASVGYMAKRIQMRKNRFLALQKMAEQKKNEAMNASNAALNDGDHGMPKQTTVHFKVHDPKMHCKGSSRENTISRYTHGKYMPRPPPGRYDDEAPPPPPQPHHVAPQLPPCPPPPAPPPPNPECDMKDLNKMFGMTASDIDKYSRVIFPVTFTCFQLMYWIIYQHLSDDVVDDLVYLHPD

DmS-GABA receptor [2] = molecular target: T2, DmS-GABA receptor (Drosophila melanogaster, UniProt P25123); experiment: GABA concentration-response relationships for DmS-GABA in absence and presence of lotilaner; assay type: cell-based; parameters: expressed in transfected cells; host or cells: Xenopus laevis oocytes injected with in vitro-transcribed capped cRNA (gene synthesised at Genewiz, pT7-TS vector); conditions: normalized to initial 100 μM GABA application
T2 sequence (P25123 45-606 isoform P25123-1 limits assumed): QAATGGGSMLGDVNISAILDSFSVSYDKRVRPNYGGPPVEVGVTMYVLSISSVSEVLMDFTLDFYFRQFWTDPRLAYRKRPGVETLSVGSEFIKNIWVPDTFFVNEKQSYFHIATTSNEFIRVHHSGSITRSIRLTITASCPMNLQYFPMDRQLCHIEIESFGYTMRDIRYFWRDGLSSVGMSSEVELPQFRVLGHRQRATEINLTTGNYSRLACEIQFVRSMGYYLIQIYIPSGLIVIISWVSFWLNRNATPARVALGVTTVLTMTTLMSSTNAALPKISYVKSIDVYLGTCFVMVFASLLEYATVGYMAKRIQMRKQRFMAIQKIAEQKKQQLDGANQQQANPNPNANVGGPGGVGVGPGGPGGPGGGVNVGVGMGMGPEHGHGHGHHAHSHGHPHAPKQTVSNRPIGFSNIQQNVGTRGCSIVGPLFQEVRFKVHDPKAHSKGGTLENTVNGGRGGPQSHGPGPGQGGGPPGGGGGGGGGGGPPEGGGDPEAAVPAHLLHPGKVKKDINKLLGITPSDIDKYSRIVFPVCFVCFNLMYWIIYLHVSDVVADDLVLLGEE
Source text: Statistical comparisons were done using unpaired Student’s t test.

Cl-GABAA α1β2γ2 [3] = molecular target: T3, Cl-GABAA α1β2γ2 (Canis lupus familiaris, UniProt A0A2H4NNI8+A0A2H4NNJ3+E2RSQ0); experiment: Antagonist cumulative pre-application concentration-inhibition, TEVC on oocytes expressing Cl-GABAA α1β2γ2; assay type: cell-based
T3 sequence (E2RSQ0 entry or part of it): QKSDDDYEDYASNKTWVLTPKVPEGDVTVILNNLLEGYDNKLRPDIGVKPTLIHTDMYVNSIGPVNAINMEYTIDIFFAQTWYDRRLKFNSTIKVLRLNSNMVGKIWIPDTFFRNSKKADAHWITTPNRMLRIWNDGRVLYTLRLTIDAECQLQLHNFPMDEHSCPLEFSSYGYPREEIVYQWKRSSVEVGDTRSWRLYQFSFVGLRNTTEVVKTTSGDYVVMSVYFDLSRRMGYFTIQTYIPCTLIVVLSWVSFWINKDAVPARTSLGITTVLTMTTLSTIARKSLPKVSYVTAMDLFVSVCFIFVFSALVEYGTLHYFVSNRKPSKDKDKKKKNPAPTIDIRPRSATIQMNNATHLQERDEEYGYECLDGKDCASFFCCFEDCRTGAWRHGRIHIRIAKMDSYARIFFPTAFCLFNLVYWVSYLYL
T3 sequence (A0A2H4NNJ3 entry or part of it): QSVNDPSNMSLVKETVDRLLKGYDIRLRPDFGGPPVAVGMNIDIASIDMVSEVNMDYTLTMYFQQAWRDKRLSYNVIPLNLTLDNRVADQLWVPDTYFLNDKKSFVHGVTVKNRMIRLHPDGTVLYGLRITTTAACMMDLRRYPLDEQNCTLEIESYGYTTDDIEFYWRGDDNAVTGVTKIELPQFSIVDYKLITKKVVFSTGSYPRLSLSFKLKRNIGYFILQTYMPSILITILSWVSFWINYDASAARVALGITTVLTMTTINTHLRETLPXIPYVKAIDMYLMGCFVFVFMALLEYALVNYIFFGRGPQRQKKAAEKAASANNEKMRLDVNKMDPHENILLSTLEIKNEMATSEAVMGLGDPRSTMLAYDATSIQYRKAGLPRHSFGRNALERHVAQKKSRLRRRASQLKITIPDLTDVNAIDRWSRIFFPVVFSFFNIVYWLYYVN
T3 sequence (A0A2H4NNI8 entry or part of it): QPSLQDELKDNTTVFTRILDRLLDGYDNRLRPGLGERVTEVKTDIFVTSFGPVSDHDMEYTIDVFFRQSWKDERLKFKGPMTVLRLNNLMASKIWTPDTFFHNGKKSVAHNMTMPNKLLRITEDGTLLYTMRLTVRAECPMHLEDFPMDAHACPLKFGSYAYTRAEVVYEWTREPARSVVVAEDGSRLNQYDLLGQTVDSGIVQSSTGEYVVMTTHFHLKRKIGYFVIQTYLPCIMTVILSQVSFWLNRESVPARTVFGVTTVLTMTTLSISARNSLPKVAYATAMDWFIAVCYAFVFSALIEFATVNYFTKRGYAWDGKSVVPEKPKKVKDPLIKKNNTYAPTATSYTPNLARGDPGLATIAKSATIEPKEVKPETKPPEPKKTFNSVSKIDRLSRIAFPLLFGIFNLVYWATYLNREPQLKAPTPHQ

[4] = molecular target: T4, DmS-GABA (wild type GABACl, RDLac) (Drosophila melanogaster, UniProt P25123); experiment: Antagonist cumulative pre-application concentration-inhibition, TEVC on oocytes expressing DmS-GABA; assay type: cell-based; conditions: for nH (Hill coefficient): concentration-inhibition curve
T4 construct: expressed in transfected cells; host or cells: Xenopus laevis oocytes injected with in vitro-transcribed capped cRNA (gene synthesised at Genewiz, pT7-TS vector)
T4 sequence (P25123 45-606 isoform P25123-1 limits assumed): T2 sequence (P25123 45-606 isoform P25123-1 limits assumed)
Source text: (§1) The agonist and the drug were then washed off for 15 s and the oocyte exposed again to the same drug concentration for 15 s before increasing to the next concentration.
In a first step, we investigated the effect of lotilaner on the very well characterized D. melanogaster GABACl.

Rm-GABA [5] = molecular target: T5, Rm-GABA (Rhipicephalus microplus, UniProt C8CGT5); experiment: Antagonist cumulative pre-application concentration-inhibition, TEVC on oocytes expressing Rm-GABA; assay type: cell-based; conditions: for nH (Hill coefficient): Rm-GABA, concentration-inhibition curve
T5 sequence (C8CGT5 entry or part of it): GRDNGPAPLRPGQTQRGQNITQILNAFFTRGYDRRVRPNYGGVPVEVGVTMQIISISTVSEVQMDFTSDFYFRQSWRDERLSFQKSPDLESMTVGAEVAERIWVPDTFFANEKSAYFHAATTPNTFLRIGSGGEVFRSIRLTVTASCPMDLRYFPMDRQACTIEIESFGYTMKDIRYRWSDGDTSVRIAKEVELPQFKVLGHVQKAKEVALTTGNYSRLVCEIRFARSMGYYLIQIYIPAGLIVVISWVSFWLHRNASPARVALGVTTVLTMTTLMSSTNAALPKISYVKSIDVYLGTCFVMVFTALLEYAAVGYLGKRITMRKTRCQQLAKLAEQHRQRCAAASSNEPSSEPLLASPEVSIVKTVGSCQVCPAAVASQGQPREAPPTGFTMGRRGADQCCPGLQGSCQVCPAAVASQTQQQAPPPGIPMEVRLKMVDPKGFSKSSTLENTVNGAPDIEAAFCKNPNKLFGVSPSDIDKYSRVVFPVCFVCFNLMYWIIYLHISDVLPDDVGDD

DmS-GABA receptor [6] = molecular target: T2, DmS-GABA receptor; experiment: Co-application protocol (GABA plus drug, no pre-incubation), TEVC on oocytes expressing DmS-GABA; conditions: GABA 1 μM + 100 nM drug
[7] = Biological activity of the enantiomers in vivo (data not shown)
Cl-GABAA α1β2γ2 [8] = molecular target: T3, Cl-GABAA α1β2γ2; experiment: GABA concentration-activation, two-electrode voltage clamp on Xenopus oocytes expressing Cl-GABAA α1β2γ2; assay type: cell-based
Procedure: Capped cRNAs were synthesized (T7 mMessage mMachine kit, Ambion, Austin, TX, USA) from the linearized vectors containing the different subunits according to the manufacturer’s protocol. cRNA samples were stored at -80 °C until use. Oocytes were prepared and injected using standard procedures. Briefly, ovaries were harvested from Xenopus females that were deeply anesthetized by cooling down at 4 °C and with exposure to tricaine mesylate (3-aminobenzoic acid ethyl ester, methane sulfonate salt, 150 mg/l). The animal care of Xenopus laevis (accreditation de l’animalerie HiQScreen N° 171) and sacrifice was done according to the guidance set by the veterinary authorities of the canton of Geneva based on art.18 on the animal welfare legislation (LPA, art. 141 Ordonnance sur la protection des animaux, OPAn) with the authorization N° 27479 GE/15/16). Small pieces of ovary were isolated in a sterile Barth solution containing: NaCl (88 mM), KCl (1 mM), NaHCO3 (2.4 mM), HEPES (10 mM, pH 7.5), MgSO4·7H2O (0.82 mM), Ca(NO3)2·4H2O (0.33 mM), CaCl2·6H2O (0.41 mM), at pH 7.4, and supplemented with 20 μg/ml of kanamycin, 100 U/ml penicillin and 100 μg/ml streptomycin. Oocytes were microinjected using a Roboinject automatic injection system (Multi Channel Systems, Reutlingen, Germany) with 15–25 nl of cRNA solution (5–50 ng/μl) and then incubated at 18 °C in sterile filtered Barth solution. […]

[9] = molecular target: T4, DmS-GABA (wild type GABACl, RDLac); experiment: GABA concentration-activation, two-electrode voltage clamp on Xenopus oocytes expressing DmS-GABA; assay type: cell-based; conditions: GABA concentration-activation curve
Procedure: Capped cRNAs were synthesized (T7 mMessage mMachine kit, Ambion, Austin, TX, USA) from the linearized vectors containing the different subunits according to the manufacturer’s protocol. cRNA samples were stored at -80 °C until use. Oocytes were prepared and injected using standard procedures. Briefly, ovaries were harvested from Xenopus females that were deeply anesthetized by cooling down at 4 °C and with exposure to tricaine mesylate (3-aminobenzoic acid ethyl ester, methane sulfonate salt, 150 mg/l). […] Small pieces of ovary were isolated in a sterile Barth solution containing: NaCl (88 mM), KCl (1 mM), NaHCO3 (2.4 mM), HEPES (10 mM, pH 7.5), MgSO4·7H2O (0.82 mM), Ca(NO3)2·4H2O (0.33 mM), CaCl2·6H2O (0.41 mM), at pH 7.4, and supplemented with 20 μg/ml of kanamycin, 100 U/ml penicillin and 100 μg/ml streptomycin. Oocytes were microinjected using a Roboinject automatic injection system (Multi Channel Systems, Reutlingen, Germany) with 15–25 nl of cRNA solution (5–50 ng/μl) and then incubated at 18 °C in sterile filtered Barth solution. Recordings were made 1–6 days post-cRNA injection.
as §1
(1) and normalized to the fitted maximal current amplitude.

Ls-GABA1 [10] = molecular target: T1, Ls-GABA1; experiment: cell-based
Procedure: (§2) Capped cRNAs were synthesized (T7 mMessage mMachine kit, Ambion, Austin, TX, USA) from the linearized vectors containing the different subunits according to the manufacturer’s protocol. cRNA samples were stored at -80 °C until use. Oocytes were prepared and injected using standard procedures. Briefly, ovaries were harvested from Xenopus females that were deeply anesthetized by cooling down at 4 °C and with exposure to tricaine mesylate (3-aminobenzoic acid ethyl ester, methane sulfonate salt, 150 mg/l). The animal care of Xenopus laevis (accreditation de l’animalerie HiQScreen N° 171) and sacrifice was done according to the guidance set by the veterinary authorities of the canton of Geneva based on art.18 on the animal welfare legislation (LPA, art. 141 Ordonnance sur la protection des animaux, OPAn) with the authorization N° 27479 GE/15/16). Small pieces of ovary were isolated in a sterile Barth solution containing: NaCl (88 mM), KCl (1 mM), NaHCO3 (2.4 mM), HEPES (10 mM, pH 7.5), MgSO4·7H2O (0.82 mM), Ca(NO3)2·4H2O (0.33 mM), CaCl2·6H2O (0.41 mM), at pH 7.4, and supplemented with 20 μg/ml of kanamycin, 100 U/ml penicillin and 100 μg/ml streptomycin. Oocytes were microinjected using a Roboinject automatic injection system (Multi Channel Systems, Reutlingen, Germany) with 15–25 nl of cRNA solution (5–50 ng/μl) and then incubated at 18 °C in sterile filtered Barth solution. Recordings were made 1–6 days post-cRNA injection.
(§3) . In experiments in which the channel was challenged several times by GABA, enough time was allowed between applications for the channel to recover from desensitization. […]; 10 μM for DmS-GABA and DmR2-GABA; 50 μM for Rm-GABA; and 500 μM for Ls-GABA1). The agonist and the drug were then washed off for 15 s and the oocyte exposed again to the same drug concentration for 15 s before increasing to the next concentration.
(§4) . (1) and normalized to the fitted maximal current amplitude. […] . Table 1 and Additional file 3: Figure S1f). The Hill coefficients were higher than 1 for the five receptors (Table 1) indicating the presence of more than one agonist binding site per receptor. These values were obtained from peak current amplitudes. […]; Table 1 and Additional file 3: Figure S1f).

Rm-GABA [11] = molecular target: T5, Rm-GABA; experiment: cell-based
Procedure: as §2, §3, §4

R. microplus GABACls = system: R. microplus GABACls; parameters: method as in PMID 24365472; conditions: cited from earlier work
M. domestica GABACls = system: M. domestica GABACls; parameters: method as in PMID 19944072; conditions: cited from earlier work
[12] = system: D. melanogaster S302 form; parameters: method as in PMID 24365472; conditions: cited from earlier work

Compound: Cc1cc(C2=NO[C@@](c3cc(Cl)c(Cl)c(Cl)c3)(C(F)(F)F)C2)sc1C(=O)NCC(=O)NCC(F)(F)F [Lotilaner, lotilaner]
- IC50 (Ls-GABA1 [1]): 52.4 ± 4.54 nM
- fold lower IC50 value compared to fipronil (Ls-GABA1 [1]; Ls-GABA1): 3 fold
- nH (Hill coefficient) (Ls-GABA1 [1]; Ls-GABA1): -0.75 ± 0.04
- GABA Rmax in presence of 0.1 μM lotilaner (DmS-GABA receptor [2]; lotilaner 0.1 μM): 50.98 ± 0.47%
- GABA Rmax in presence of 1 μM lotilaner (DmS-GABA receptor [2]; lotilaner 1 μM): 13.65 ± 1.12%
- IC50 (Cl-GABAA α1β2γ2 [3]): > 10 µM
- nH (Hill coefficient) (Cl-GABAA α1β2γ2 [3]; Cl-GABAA α1β2γ2, concentration-inhibition curve): -0.09 ± 0.02
- inhibitory effect / activity on dog GABAA receptor (Cl-GABAA α1β2γ2 [3]; Cl-GABAA α1β2γ2, up to the highest dose tested, 10 μM): no activity; also recorded: No obvious inhibitory effect
- GABA current inhibition ([4]; DmS-GABA, GABA 10 μM, lotilaner concentrations > 1 μM): almost complete GABA current inhibition
- nH (Hill coefficient) ([4]; DmS-GABA): -0.64 ± 0.03
- IC50 ([4]; read-out: IC50): 23.8 ± 1.87 nM
- IC50 (Rm-GABA [5]): 36.8 ± 4.39 nM
- nH (Hill coefficient) (Rm-GABA [5]): -0.47 ± 0.03
- potentiation of peak current at first co-application (DmS-GABA receptor [6]; on average): > 30%
- potentiation of tail current at first co-application (DmS-GABA receptor [6]; on average): > 10%

Compound: ClC1=C(Cl)[C@]2(Cl)[C@@H]3[C@@H]4C[C@@H]([C@H]5O[C@@H]45)[C@@H]3[C@@]1(Cl)C2(Cl)Cl [Dieldrin, dieldrin, reference compound]
- IC50 [4]: 4170 ± 920 nM
- nH (Hill coefficient) ([4]; DmS-GABA): -0.45 ± 0.05

Compound: Cc1cc(C2=NO[C@](c3cc(Cl)c(Cl)c(Cl)c3)(C(F)(F)F)C2)sc1C(=O)NCC(=O)NCC(F)(F)F [AHC-2229544]
- less biological activity than the S-enantiomer [7]: 100 ×
- nH (Hill coefficient) ([4]; DmS-GABA): -0.30 ± 0.03
- inhibition of the GABA-induced current ([4]; DmS-GABA, up to 0.3 μM): no inhibition
- IC50 ([4]; read-out: IC50): 959 ± 268 nM
- slight decrease in both peaks and tails currents (DmS-GABA receptor [6]): < 10%

Compound: NCCCC(=O)O [GABA, γ-aminobutyric acid]
- EC50 (Cl-GABAA α1β2γ2 [8]; EC50 (μM), natural agonist GABA, ± SEM): 1.8 ± 0.14 µM
- nH (Hill coefficient) (Cl-GABAA α1β2γ2 [8]; GABA concentration-activation curve): 1.31 ± 0.12
- GABA Rmax (DmS-GABA receptor [2]; GABA alone): 97.706 ± 2.45%
- nH (Hill coefficient) [9]: 1.57 ± 0.15
- EC50 (Ls-GABA1 [10]): 393 ± 11.1 µM
- nH (Hill coefficient) (Ls-GABA1 [10]; Ls-GABA1, GABA concentration-activation curve): 1.35 ± 0.04
- EC50 (Rm-GABA [11]): 50 ± 0.76 µM
- nH (Hill coefficient) (Rm-GABA [11]; Rm-GABA, GABA concentration-activation curve): 2.27 ± 0.19

Compound: Cc1cc(C2=NOC(c3cc(Cl)cc(Cl)c3)(C(F)(F)F)C2)ccc1C(=O)NCC(=O)NCC(F)(F)F (stereo not drawn) [fluralaner]
- higher inhibitor potency over fipronil (R. microplus GABACls): 5 fold
- higher inhibitor potency over fipronil (M. domestica GABACls): 5 fold

Compound: N#Cc1nn(-c2c(Cl)cc(C(F)(F)F)cc2Cl)c(N)c1[S+]([O-])C(F)(F)F (stereo not drawn) [Fipronil, fipronil, reference compound]
- IC50 (Ls-GABA1 [1]): 165 ± 11.8 nM
- nH (Hill coefficient) (Ls-GABA1 [1]; Ls-GABA1): -0.78 ± 0.04
- loss of potency [12]: 18 fold
- IC50 [4]: 27.6 ± 1.71 nM
- nH (Hill coefficient) ([4]; DmS-GABA): -0.85 ± 0.04
- IC50 (Rm-GABA [5]): 25.6 ± 2.25 nM
- nH (Hill coefficient) (Rm-GABA [5]): -0.56 ± 0.03
